Measurements published in ChEMBL document CHEMBL3124829, “Discovery of SCH 900188: A Potent Hepatitis C Virus NS5B Polymerase Inhibitor Prodrug As a Development Candidate” (ACS Med Chem Lett, 2014).
The source made the active and inactive calls. No cut-off for these calls is given here.

Tests used:
[1] = test system: Rhesus monkey; test: AUC (0 to 24 hrs) in monkey assessed as 4-Fluoro-6-((7-fluoro-4-oxo-3,4-dihydroquinazolin-6-yl)methyl)-8-(2-oxo-1,2-dihydropyridin-3-yl)-6H-furo[2,3-e]indole-7-carboxylic acid at 3 mg/kg, po; assay type: ADME, organism-based, Macaca mulatta, Plasma; parameters: time < 24 hr, dose 3 mg/kg, route oral; details: in vivo
[2] = test system: Canis familiaris; test: AUC (0 to 24 hrs) in dog assessed as 4-Fluoro-6-((7-fluoro-4-oxo-3,4-dihydroquinazolin-6-yl)methyl)-8-(2-oxo-1,2-dihydropyridin-3-yl)-6H-furo[2,3-e]indole-7-carboxylic acid at 3 mg/kg, po; assay type: ADME, organism-based, Canis lupus familiaris, Plasma; parameters: time < 24 hr, dose 3 mg/kg, route oral; details: in vivo
[3] = Mutagenic activity in micronucleus (unknown origin); assay type: ADME
[4] = test system: Salmonella typhimurium; test: Mutagenic activity in Salmonella typhimurium by mini Ames test; assay type: toxicity, organism-based; details: salmonella enterica subsp. enterica serovar typhimurium
[5] = test system: RNA-directed RNA polymerase (Hepacivirus hominis), O39930 [G554D]; test: Inhibition of HCV NS5B RdRp G554D mutant palm allosteric site
[6] = test system: RNA-directed RNA polymerase (Hepacivirus hominis), O39930 [M414T]; test: Inhibition of HCV NS5B RdRp M414T mutant palm allosteric site
[7] = test system: RNA-directed RNA polymerase (Hepacivirus hominis), O39930 [C316Y]; test: Inhibition of HCV NS5B RdRp C316Y mutant palm allosteric site
[8] = Solubility of the compound at pH 3; assay type: physicochemical; details: buffer
[9] = test system: Rattus norvegicus; test: AUC (0 to 24 hrs) in rat assessed as 4-Fluoro-6-((7-fluoro-4-oxo-3,4-dihydroquinazolin-6-yl)methyl)-8-(2-oxo-1,2-dihydropyridin-3-yl)-6H-furo[2,3-e]indole-7-carboxylic acid at 10 mg/kg, po; assay type: ADME, organism-based, Plasma; parameters: time < 24 hr, dose 10 mg/kg, route oral; details: in vivo
[10] = test system: Hepatitis C virus; test: Antiviral activity against HCV infected in human hepatoma cells assessed as inhibition of viral RNA replication after 3 days by real time PCR analysis; assay type: functional, organism-based, Hepacivirus hominis; details: 72 h
[11] = Inhibition of HCV genotype 1b C-terminal polyhistidine-tagged NS5B Cdelta21 RdRp expressed in Escherichia coli using DCoH75 as template assessed as incorporation of [33P]-CTP in polynucleotide sequence after 2 hrs by scintillation counting analysis; parameters: species or system Hepatitis C virus subtype 1b
[12] = test system: RNA-directed RNA polymerase (Hepacivirus hominis), O39930 [G554D]; test: Inhibition of HCV NS5B RdRp G554D mutant active site
[13] = test system: RNA-directed RNA polymerase (Hepacivirus hominis), O39930 [M414T]; test: Inhibition of HCV NS5B RdRp M414T mutant active site
[14] = test system: RNA-directed RNA polymerase (Hepacivirus hominis), O39930 [C316Y]; test: Inhibition of HCV NS5B RdRp C316Y mutant active site
[15] = test system: Rhesus monkey; test: Oral bioavailability in monkey assessed as 4-Fluoro-6-((7-fluoro-4-oxo-3,4-dihydroquinazolin-6-yl)methyl)-8-(2-oxo-1,2-dihydropyridin-3-yl)-6H-furo[2,3-e]indole-7-carboxylic acid; assay type: ADME, organism-based, Macaca mulatta; details: in vivo
[16] = test system: Canis familiaris; test: Oral bioavailability in dog assessed as 4-Fluoro-6-((7-fluoro-4-oxo-3,4-dihydroquinazolin-6-yl)methyl)-8-(2-oxo-1,2-dihydropyridin-3-yl)-6H-furo[2,3-e]indole-7-carboxylic acid; assay type: ADME, organism-based, Canis lupus familiaris; details: in vivo
[17] = test system: Rattus norvegicus; test: Oral bioavailability in rat assessed as 4-Fluoro-6-((7-fluoro-4-oxo-3,4-dihydroquinazolin-6-yl)methyl)-8-(2-oxo-1,2-dihydropyridin-3-yl)-6H-furo[2,3-e]indole-7-carboxylic acid; assay type: ADME, organism-based; details: in vivo
[18] = test system: Rhesus monkey; test: Half life in monkey assessed as 4-Fluoro-6-((7-fluoro-4-oxo-3,4-dihydroquinazolin-6-yl)methyl)-8-(2-oxo-1,2-dihydropyridin-3-yl)-6H-furo[2,3-e]indole-7-carboxylic acid at 1 mg/kg, iv; assay type: ADME, organism-based, Macaca mulatta; parameters: dose 1 mg/kg, route intravenous; details: in vivo
[19] = test system: Canis familiaris; test: Half life in dog assessed as 4-Fluoro-6-((7-fluoro-4-oxo-3,4-dihydroquinazolin-6-yl)methyl)-8-(2-oxo-1,2-dihydropyridin-3-yl)-6H-furo[2,3-e]indole-7-carboxylic acid at 1 mg/kg, iv; assay type: ADME, organism-based, Canis lupus familiaris; parameters: dose 1 mg/kg, route intravenous; details: in vivo
[20] = test system: Rattus norvegicus; test: Half life in rat assessed as 4-Fluoro-6-((7-fluoro-4-oxo-3,4-dihydroquinazolin-6-yl)methyl)-8-(2-oxo-1,2-dihydropyridin-3-yl)-6H-furo[2,3-e]indole-7-carboxylic acid at 3 mg/kg, iv; assay type: ADME, organism-based; parameters: dose 3 mg/kg, route intravenous; details: in vivo
[21] = test system: Rhesus monkey; test: Cmax in monkey assessed as 4-Fluoro-6-((7-fluoro-4-oxo-3,4-dihydroquinazolin-6-yl)methyl)-8-(2-oxo-1,2-dihydropyridin-3-yl)-6H-furo[2,3-e]indole-7-carboxylic acid; assay type: ADME, organism-based, Macaca mulatta; details: in vivo
[22] = species on record: Canis familiaris; test: Cmax in dog assessed as 4-Fluoro-6-((7-fluoro-4-oxo-3,4-dihydroquinazolin-6-yl)methyl)-8-(2-oxo-1,2-dihydropyridin-3-yl)-6H-furo[2,3-e]indole-7-carboxylic acid; assay type: ADME, organism-based, Canis lupus familiaris; details: in vivo
[23] = species on record: Rattus norvegicus; test: Cmax in rat assessed as 4-Fluoro-6-((7-fluoro-4-oxo-3,4-dihydroquinazolin-6-yl)methyl)-8-(2-oxo-1,2-dihydropyridin-3-yl)-6H-furo[2,3-e]indole-7-carboxylic acid; assay type: ADME, organism-based; details: in vivo
[24] = species on record: Rattus norvegicus; test: Ratio of drug level from liver to plasma in rat assessed as 4-Fluoro-6-((7-fluoro-4-oxo-3,4-dihydroquinazolin-6-yl)methyl)-8-(2-oxo-1,2-dihydropyridin-3-yl)-6H-furo[2,3-e]indole-7-carboxylic acid after 6 hrs; details: other tissue

Sequence of RNA-directed RNA polymerase (Hepacivirus hominis), O39930 [M414T] (O39930 entry or part of it M414T): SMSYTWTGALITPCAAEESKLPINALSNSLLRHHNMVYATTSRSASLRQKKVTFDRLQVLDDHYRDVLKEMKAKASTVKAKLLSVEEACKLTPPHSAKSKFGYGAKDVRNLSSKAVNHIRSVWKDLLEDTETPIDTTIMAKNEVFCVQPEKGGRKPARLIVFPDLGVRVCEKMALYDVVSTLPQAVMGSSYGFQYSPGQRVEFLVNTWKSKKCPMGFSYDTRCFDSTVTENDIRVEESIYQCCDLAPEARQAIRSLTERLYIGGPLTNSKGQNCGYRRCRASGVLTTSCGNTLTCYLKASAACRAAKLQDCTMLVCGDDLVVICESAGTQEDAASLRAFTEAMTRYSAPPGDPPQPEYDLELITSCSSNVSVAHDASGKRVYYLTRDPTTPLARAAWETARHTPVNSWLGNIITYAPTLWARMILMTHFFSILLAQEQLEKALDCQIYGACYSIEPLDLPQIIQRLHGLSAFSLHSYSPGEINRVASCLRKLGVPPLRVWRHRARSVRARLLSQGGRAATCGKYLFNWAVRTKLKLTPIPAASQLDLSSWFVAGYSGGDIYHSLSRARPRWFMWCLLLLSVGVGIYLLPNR
Sequence of RNA-directed RNA polymerase (Hepacivirus hominis), O39930 [C316Y] (O39930 entry or part of it C316Y): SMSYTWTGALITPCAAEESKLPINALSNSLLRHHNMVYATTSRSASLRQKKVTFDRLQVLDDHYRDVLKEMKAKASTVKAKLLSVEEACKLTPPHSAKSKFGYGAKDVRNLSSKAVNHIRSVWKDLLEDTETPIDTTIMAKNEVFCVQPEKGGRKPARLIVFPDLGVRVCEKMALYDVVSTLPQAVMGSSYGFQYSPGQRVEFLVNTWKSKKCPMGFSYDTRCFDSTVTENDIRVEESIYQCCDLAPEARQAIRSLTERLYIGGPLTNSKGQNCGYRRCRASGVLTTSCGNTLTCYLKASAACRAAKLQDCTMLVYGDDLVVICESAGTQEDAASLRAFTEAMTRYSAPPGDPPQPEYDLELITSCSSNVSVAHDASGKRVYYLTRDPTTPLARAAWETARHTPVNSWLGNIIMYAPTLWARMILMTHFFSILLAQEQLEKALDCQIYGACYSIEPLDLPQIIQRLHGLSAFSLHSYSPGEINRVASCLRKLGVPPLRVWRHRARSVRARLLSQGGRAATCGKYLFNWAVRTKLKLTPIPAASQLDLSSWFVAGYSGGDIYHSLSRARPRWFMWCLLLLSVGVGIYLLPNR
Sequence of RNA-directed RNA polymerase (Hepacivirus hominis), O39930 [G554D] (O39930 entry or part of it G554D): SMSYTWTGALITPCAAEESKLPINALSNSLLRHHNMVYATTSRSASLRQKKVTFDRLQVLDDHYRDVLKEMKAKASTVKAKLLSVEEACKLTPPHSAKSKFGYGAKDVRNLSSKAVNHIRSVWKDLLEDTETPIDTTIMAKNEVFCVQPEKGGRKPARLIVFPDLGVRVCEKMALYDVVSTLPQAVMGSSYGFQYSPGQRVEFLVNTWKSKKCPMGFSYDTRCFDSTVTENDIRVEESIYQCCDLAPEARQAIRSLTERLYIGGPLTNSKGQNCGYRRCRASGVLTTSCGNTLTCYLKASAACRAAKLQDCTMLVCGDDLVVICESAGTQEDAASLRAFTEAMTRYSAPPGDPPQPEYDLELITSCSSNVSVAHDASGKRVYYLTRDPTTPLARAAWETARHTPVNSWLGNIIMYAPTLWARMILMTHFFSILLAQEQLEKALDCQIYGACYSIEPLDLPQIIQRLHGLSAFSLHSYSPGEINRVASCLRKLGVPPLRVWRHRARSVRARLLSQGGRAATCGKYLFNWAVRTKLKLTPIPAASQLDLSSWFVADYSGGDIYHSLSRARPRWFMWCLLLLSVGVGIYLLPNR

With `CN(C)CCOC(=O)c1c(-c2ccc[nH]c2=O)c2c3occc3c(F)cc2n1Cc1cc2c(=O)[nH]cnc2cc1F.Cl` as the compound, how does the AUC [1] read?
Its AUC is 144 µM·h.

And the AUC [2]?
The AUC was 2.4 µM·h.

What about the Activity [3] of the same compound?
The Activity was “Non-toxic”.

And the Activity [4]?
Its Activity is “Non-toxic”.

What about the inhibition [5] of the same compound?
The inhibition was “inactive”.

And the inhibition [6]?
The inhibition was “inactive”.

And the inhibition [7]?
The inhibition was “inactive”.

What about the solubility [8] of the same compound?
The solubility was 900 µM.

And the AUC [9]?
The AUC was 22 µM·h.

And the EC50 [10]?
Its EC50 is 5 nM.

What about the IC50 [11] of the same compound?
Its IC50 is 150 nM.

What about the inhibition [12] of the same compound?
The inhibition was “Active”.

And the inhibition [13]?
The inhibition was “Active”.

And the inhibition [14]?
Its inhibition is “Active”.

And the F [15]?
Its F is 63%.

And the F [16]?
The F was 29%.

What about the F [17] of the same compound?
Its F is 2%.

What about the t1/2 [18] of the same compound?
Its t1/2 is 22 h.

And the t1/2 [19]?
Its t1/2 is 4 h.

What about the t1/2 [20] of the same compound?
The t1/2 was 11 h.

What about the Cmax [21] of the same compound?
The Cmax was 4100 nM.

And the Cmax [22]?
The Cmax was 800 nM.

What about the Cmax [23] of the same compound?
The Cmax was 2100 nM.

And the Ratio [24]?
The Ratio was 0.5.
